Measurements from patent US9156818B2, “Hepatitis C virus inhibitors” (Enanta Pharmaceuticals, Inc., priority 2009, dated 2015).

Test system: HCV 1b genotype replicon
Test: HCV genotype-1b replicon assay (qRT-PCR or luciferase)
Format: cell-based
Settings: Hepatitis C virus; HCV 1b replicon cell line (SGR 11-7 or Huh-luc/neo-ET); qRT-PCR or luciferase readout; read-out: Genotype-1b replicon EC50 Range
Source text: HCV replicon cell lines (kindly provided by R. Bartenschlager) isolated from colonies as described by Lohman et. al. (Lohman et al. (1999) Science 285: 110-113, expressly incorporated by reference in its entirety) and used for all experiments. The HCV replicon has the nucleic acid sequence set forth in EMBL Accession No.: AJ242651, the coding sequence of which is from nucleotides 1801 to 8406.
The coding sequence of the published HCV replicon was synthesized and subsequently assembled in a modified plasmid pBR322 (Promega, Madison, Wis.) using standard molecular biology techniques. One replicon cell line (“SGR 11-7”) stably expresses HCV replicon RNA which consists of (i) the HCV 5′UTR fused to the first 12 amino acids of the capsid protein, (ii) the neomycin phosphotransferase gene (neo), (iii) the IRES from encephalomyocarditis virus (EMCV), and (iv) HCV NS2 to NS5B genes and the HCV 3′UTR. Another replicon cell line (“Huh-luc/neo-ET”) described by Vrolijk et. al. (Vrolijk et. al. (2003) Journal of Virological Methods 110:201-209, expressly incorporated by reference in its entirety) stably expresses HCV replicon RNA which consists of (i) the HCV 5′UTR fused to the first 12 amino acids of the capsid protein, (ii) the firefly luciferase reporter gene, (iii) the ubiquitin gene, (iv) the neomycin phosphotransferase gene (neo), (v) the IRES from encephalomyocarditis virus (EMCV), and (vi) HCV NS3 to NS5B genes that harbor cell culture adaptive mutations (E1202G, T12801, K1846T) and the HCV 3′UTR.
These cell lines were maintained at 37° C., 5% CO2, 100% relative humidity in DMEM (Cat#11965-084, Invitrogen), with 10% fetal calf serum (“FCS”, Invitrogen), 1% non-essential amino acids (Invitrogen), 1% of Glutamax (Invitrogen), 1% of 100× penicillin/streptomycin (Cat#15140-122, Invitrogen) and Geneticin (Cat#10131-027, Invitrogen) at 0.75 mg/ml or 0.5 mg/ml for 11-7 and Huh-luc/neo-ET cells, respectively.
EC50 values of single agent compounds and combinations were determined by HCV RNA detection using quantitative RT-PCR, according to the manufacturer's instructions, with a TAQMAN® One-Step RT-PCR Master Mix Reagents Kit (Cat# AB 4309169, Applied Biosystems) on an ABI Model 7500 thermocycler. The TaqMan primers used for detecting and quantifying HCV RNA were obtained from Integrated DNA Technologies. HCV RNA was normalized to GAPDH RNA levels in drug-treated cells, which was detected and quantified using the Human GAPDH Endogenous Control Mix (Applied Biosystems, AB 4310884E). Total cellular RNA was purified from 96-well plates using the RNAqueous 96 kit (Ambion, Cat# AM1812). Chemical agent cytotoxicity was evaluated using an MTS assay according to the manufacturer's directions (Promega).
Since clinical drug resistance often develops in viral infections following single agent therapies, there is a need to assess the additive, antagonistic, or synergistic properties of combination therapies. We use the HCV replicon system to assess the potential use of the compound of the present invention or in combination therapies with Interferon alpha, cyclosporine analogs and inhibitors targeting other HCV proteins. The acute effects of a single or combinations of drugs are studied in the “Huh-luc/neo-ET” replicon with each chemical agent titrated in an X or Y direction in a 6 point two-fold dilution curve centered around the EC50 of each drug. Briefly, replicon cells are seeded at 7,000 cells per well in 90 ul DMEM (without phenol red, Invitrogen Cat.#31053-036) per well with 10% FCS, 1% non-essential amino acids, 1% of Glutamax and 1% of 1 OOX penicillin/streptomycin and incubated overnight at 37° C., 5% CO2, 100% relative humidity. […]

Work on `COC(=O)N[C@H](C(=O)N1CCC[C@H]1c1ncc(-c2ccc(-c3ccc(-c4cnc([C@@H]5[C@H]6CC[C@H](C6)N5C(=O)[C@@H](NC(=O)OC)C(C)C)[nH]4)cc3)cc2)[nH]1)C(C)C` [Example 83] yielded an EC50 of less than 1 nM.
`COC(=O)N[C@H](C(=O)N1CCC[C@H]1c1ncc(-c2ccc(-c3ccc(-c4cnc([C@H]5[C@@H]6CC[C@@H](C6)N5C(=O)[C@@H](NC(=O)OC)C(C)C)[nH]4)cc3)cc2)[nH]1)C(C)C` [Example 246] was tested, and the EC50 was less than 1 nM.
With `COC(=O)N[C@H](C(=O)N1CCC[C@H]1c1nc2cc(C#Cc3ccc(-c4cnc([C@@H]5[C@H]6CC[C@H](C6)N5C(=O)[C@@H](NC(=O)OC)C(C)C)[nH]4)cc3)ccc2[nH]1)C(C)C` [Example 319] the EC50 was less than 1 nM.
With `COC(=O)N[C@H](C(=O)N1CCC[C@H]1c1nc(-c2ccc(C#Cc3ccc4[nH]c([C@@H]5[C@H]6CC[C@H](C6)N5C(=O)[C@@H](NC(=O)OC)C(C)C)nc4c3)cc2)c[nH]1)C(C)C` [Example 338] the EC50 was less than 1 nM.
`COC(=O)N[C@H](C(=O)N1CCC[C@H]1c1nc(-c2ccc(C#Cc3ccc4[nH]c([C@@H]5C6CCC(CC6)N5C(=O)[C@@H](NC(=O)OC)C(C)C)nc4c3)cc2)c[nH]1)C(C)C` [Example 344] showed an EC50 of less than 1 nM.
`COC(=O)N[C@H](C(=O)N1[C@@H]2CC[C@@H](C2)[C@H]1c1ncc(-c2ccc(C#Cc3ccc4[nH]c([C@@H]5[C@H]6CC[C@H](C6)N5C(=O)[C@@H](NC(=O)OC)C(C)C)nc4c3)cc2)[nH]1)C(C)C` [Example 346] was tested, and the EC50 was less than 1 nM.
`COC(=O)N[C@H](C(=O)N1CCC[C@H]1c1nc(-c2ccc(-c3ccc(-c4ccc5[nH]c([C@@H]6[C@H]7CC[C@H](C7)N6C(=O)[C@@H](NC(=O)OC)C(C)C)nc5c4)cc3)cc2)c[nH]1)C(C)C` [Example 348] was tested, and the EC50 was less than 1 nM.
In the case of `COC(=O)N[C@H](C(=O)N1CCC[C@H]1c1nc(-c2ccc3cc(-c4ccc5[nH]c([C@@H]6[C@H]7CC[C@H](C7)N6C(=O)[C@@H](NC(=O)OC)C(C)C)nc5c4)ccc3c2)c[nH]1)C(C)C` [Example 350], the EC50 is reported as less than 1 nM.
